# Source: US20240150367A1, “NITROGEN-CONTAINING SPIRO CYCLIC COMPOUNDS AND PHARMACEUTICAL USE THEREOF” (Japan Tobacco Inc., priority 2009, published 2024)
# Molecular target: hJAK2 kinase domain (aa808-end) (Homo sapiens (Human), UniProt O60674)
# Test: JAK2 activity inhibition, kinase reaction (Test 2)
# Format: biochemical
# Conditions: not given
# Chain of hJAK2 kinase domain (aa808-end) (O60674 808-1132 limits assumed): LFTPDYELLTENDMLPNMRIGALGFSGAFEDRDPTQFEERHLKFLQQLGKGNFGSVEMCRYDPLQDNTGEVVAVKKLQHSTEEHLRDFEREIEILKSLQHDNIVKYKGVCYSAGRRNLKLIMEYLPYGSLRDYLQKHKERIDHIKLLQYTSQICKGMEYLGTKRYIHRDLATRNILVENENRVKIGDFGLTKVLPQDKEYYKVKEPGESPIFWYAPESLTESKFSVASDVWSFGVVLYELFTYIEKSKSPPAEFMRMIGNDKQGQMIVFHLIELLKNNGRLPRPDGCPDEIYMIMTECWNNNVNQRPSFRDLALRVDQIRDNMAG
row,Structure (SMILES),IC50 [nM]
1,"CC1CN(C(=O)CC#N)C12CCCN(c1ncnc3[nH]ccc13)C2 (single isomer, unassigned) [Compound 1, 3-[3-methyl-6-(7H-pyrrolo[2,3-d]pyrimidin-4-yl)-1,6-diazaspiro[3.5]non-1-yl]-3-oxopropionitrile]",1
2,"CC1CN(C(=O)CC#N)C12CCCN(c1ncnc3[nH]ccc13)C2 (single isomer, unassigned) [Compound 2, 3-[3-methyl-6-(7H-pyrrolo[2,3-d]pyrimidin-4-yl)-1,6-diazaspiro[3.5]non-1-yl]-3-oxopropionitrile]",1.7
3,"N#CCC(=O)N1CCC12CCCN(c1ncnc3[nH]ccc13)C2 (stereo not drawn) [Compound 3, 3-oxo-3-[6-(7H-pyrrolo[2,3-d]pyrimidin-4-yl)-1,6-diazaspiro[3.5]non-1-yl]-propionitrile]",2.2
4,"N#CCC(=O)N1CC(F)(F)C12CCN(c1ncnc3[nH]ccc13)C2 (stereo not drawn) [Compound 4, 3-[3,3-difluoro-6-(7H-pyrrolo[2,3-d]pyrimidin-4-yl)-1,6-diazaspiro[3.4]oct-1-yl]-3-oxopropionitrile]",1.7
5,"N#CCC(=O)N1CC(F)(F)C12CCCN(c1ncnc3[nH]ccc13)C2 (stereo not drawn) [Compound 5, 3-[3,3-difluoro-6-(7H-pyrrolo[2,3-d]pyrimidin-4-yl)-1,6-diaza-spiro[3.5]non-1-yl]-3-oxo-propionitrile]",1.9
6,"N#CCC(=O)N1CCCC12CCCN(c1ncnc3[nH]ccc13)C2 (stereo not drawn) [Compound 7, 3-oxo-3-[7-(7H-pyrrolo[2.3-d]pyrimidin-4-yl)-1,7-diazaspiro[4.5]dec-1-yl)propionitrile]",4.7

# Molecular target: hJAK3 kinase domain (aa781-end) (Homo sapiens (Human), UniProt P52333)
# Sequence (P52333 781-1124 limits assumed): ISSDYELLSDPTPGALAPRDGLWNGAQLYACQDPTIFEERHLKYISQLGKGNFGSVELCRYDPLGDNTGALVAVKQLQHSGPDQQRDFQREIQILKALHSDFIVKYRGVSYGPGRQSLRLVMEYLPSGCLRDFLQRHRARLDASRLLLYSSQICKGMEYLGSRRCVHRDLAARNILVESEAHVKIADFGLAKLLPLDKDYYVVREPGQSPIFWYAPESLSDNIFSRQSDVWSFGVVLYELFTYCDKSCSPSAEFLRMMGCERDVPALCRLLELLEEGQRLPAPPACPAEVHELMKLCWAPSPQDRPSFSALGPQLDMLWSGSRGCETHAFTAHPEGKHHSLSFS
# Test: JAK3 activity inhibition, kinase reaction (Test 1)
# Conditions: read-out: JAK3 % Inhibition
# Procedure: JAK3 activity inhibitory effects of test compounds were evaluated by the following kinase reactions.
# In the kinase reactions, fused proteins (6His tag-fused hJAK3 kinase domain (aa781-end)) which were coexpressed in Sf21 cells and purified by Ni2+/NTA agarose were used.
# A well in which ATP was not added was set out as a blank well.
# Plates were let stand at room temperature for 10 minutes from starting reactions.
# One hour after the addition of the buffer for detection, fluorescence counts of each well were measured by a fluorescence microplate reader.
# Data were obtained by deducting the average Ratio of a blank well from Ratio of each well.
row,Structure (SMILES),inhibition at 1 µM [%]
1,N#CC1CCN(C(=O)N2CCCC23CCN(c2ncnc4[nH]ccc24)C3)C1 (racemic) [Compound 51],41
2,c1nc(N2CCCC3(CCCCCN3)C2)c2cc[nH]c2n1 (racemic) [Compound 75],1
3,c1nc(N2CCC3(CCCCN3)C2)c2cc[nH]c2n1 (racemic) [Compound 79],38
4,CC(=O)N1CCCC12CCN(c1ncnc3[nH]ccc13)C2 (racemic) [Compound 87],39
5,N#CCC(=O)N1CCCC12CCCN(c1c(Cl)cnc3[nH]ncc13)C2 (racemic) [Compound 91],42
6,CC1N(c2ncnc3[nH]ccc23)CCC12CCCN2C(=O)CC#N (stereo not drawn) [Compound 13],26

# Same assay, conditions: read-out: JAK3 IC50
row,Structure (SMILES),IC50 [nM]
1,"CC(O)C(=O)N1CCCC12CCCN(c1ncnc3[nH]ccc13)C2 (single isomer, unassigned) [Compound 30]",580
2,"CC1CC2(CCCN2C(=O)CC#N)CN1c1ncnc2[nH]ccc12 (single isomer, unassigned) [Compound 33]",480
3,"CC1N(c2ncnc3[nH]ccc23)CCC12CCCN2C(=O)CC#N (single isomer, unassigned) [Compound 34]",36
4,"CC(O)C(=O)N1CCCC12CCCN(c1ncnc3[nH]ccc13)C2 (single isomer, unassigned) [Compound 35]",530
5,"CC(O)C(=O)N1CCCC12CCCN(c1ncnc3[nH]ccc13)C2 (single isomer, unassigned) [Compound 36]",150
6,"CC1CC2(CCCN2C(=O)CC#N)CN1c1ncnc2[nH]ccc12 (single isomer, unassigned) [Compound 42]",100
7,CC1CC2(CCCN(c3ncnc4[nH]ccc34)C2)N1C(=O)CC#N (stereo not drawn) [Compound 14],41
8,CC1CC2(CCCN(c3ncnc4[nH]ccc34)C2)N1C(=O)CC#N (stereo not drawn) [Compound 20],100
9,C[C@H](O)C(=O)N1CCCC12CCCN(c1ncnc3[nH]ccc13)C2 (stereo partly drawn) [Compound 43],40
10,CO[C@@H](C)C(=O)N1CCCC12CCCN(c1ncnc3[nH]ccc13)C2 (stereo partly drawn) [Compound 45],270
11,CO[C@H](C)C(=O)N1CCCC12CCCN(c1ncnc3[nH]ccc13)C2 (stereo partly drawn) [Compound 46],270
12,CC(=O)O[C@@H](C)C(=O)N1CCCC12CCCN(c1ncnc3[nH]ccc13)C2 (stereo partly drawn) [Compound 47],110
